# Source: PMC6023986, “Interactions Between Emodin and Efflux Transporters on Rat Enterocyte by a Validated Ussing Chamber Technique” (Frontiers in Pharmacology, 2018)
# Like-named read-outs stand apart in the source and are kept apart here.
# Legend:
# MRP2 [1] = biological target: T1, MRP2 (Rattus norvegicus, UniProt Q63120); test: Influence of emodin on MRP2 function: pravastatin bidirectional transport in the presence of emodin (Ussing chamber); type: in vitro ADME; set-up: intestinal segments including duodenum, jejunum, ileum, and colon from anesthetized rats were immediately removed by surgery; from tissue; host or cells: stripped rat intestine (jejunum and ileum in validation; jejunum for the emodin studies); settings: rat jejunum; for Papp at 47 μM: rat
# T1 sequence (Q63120 whole entry): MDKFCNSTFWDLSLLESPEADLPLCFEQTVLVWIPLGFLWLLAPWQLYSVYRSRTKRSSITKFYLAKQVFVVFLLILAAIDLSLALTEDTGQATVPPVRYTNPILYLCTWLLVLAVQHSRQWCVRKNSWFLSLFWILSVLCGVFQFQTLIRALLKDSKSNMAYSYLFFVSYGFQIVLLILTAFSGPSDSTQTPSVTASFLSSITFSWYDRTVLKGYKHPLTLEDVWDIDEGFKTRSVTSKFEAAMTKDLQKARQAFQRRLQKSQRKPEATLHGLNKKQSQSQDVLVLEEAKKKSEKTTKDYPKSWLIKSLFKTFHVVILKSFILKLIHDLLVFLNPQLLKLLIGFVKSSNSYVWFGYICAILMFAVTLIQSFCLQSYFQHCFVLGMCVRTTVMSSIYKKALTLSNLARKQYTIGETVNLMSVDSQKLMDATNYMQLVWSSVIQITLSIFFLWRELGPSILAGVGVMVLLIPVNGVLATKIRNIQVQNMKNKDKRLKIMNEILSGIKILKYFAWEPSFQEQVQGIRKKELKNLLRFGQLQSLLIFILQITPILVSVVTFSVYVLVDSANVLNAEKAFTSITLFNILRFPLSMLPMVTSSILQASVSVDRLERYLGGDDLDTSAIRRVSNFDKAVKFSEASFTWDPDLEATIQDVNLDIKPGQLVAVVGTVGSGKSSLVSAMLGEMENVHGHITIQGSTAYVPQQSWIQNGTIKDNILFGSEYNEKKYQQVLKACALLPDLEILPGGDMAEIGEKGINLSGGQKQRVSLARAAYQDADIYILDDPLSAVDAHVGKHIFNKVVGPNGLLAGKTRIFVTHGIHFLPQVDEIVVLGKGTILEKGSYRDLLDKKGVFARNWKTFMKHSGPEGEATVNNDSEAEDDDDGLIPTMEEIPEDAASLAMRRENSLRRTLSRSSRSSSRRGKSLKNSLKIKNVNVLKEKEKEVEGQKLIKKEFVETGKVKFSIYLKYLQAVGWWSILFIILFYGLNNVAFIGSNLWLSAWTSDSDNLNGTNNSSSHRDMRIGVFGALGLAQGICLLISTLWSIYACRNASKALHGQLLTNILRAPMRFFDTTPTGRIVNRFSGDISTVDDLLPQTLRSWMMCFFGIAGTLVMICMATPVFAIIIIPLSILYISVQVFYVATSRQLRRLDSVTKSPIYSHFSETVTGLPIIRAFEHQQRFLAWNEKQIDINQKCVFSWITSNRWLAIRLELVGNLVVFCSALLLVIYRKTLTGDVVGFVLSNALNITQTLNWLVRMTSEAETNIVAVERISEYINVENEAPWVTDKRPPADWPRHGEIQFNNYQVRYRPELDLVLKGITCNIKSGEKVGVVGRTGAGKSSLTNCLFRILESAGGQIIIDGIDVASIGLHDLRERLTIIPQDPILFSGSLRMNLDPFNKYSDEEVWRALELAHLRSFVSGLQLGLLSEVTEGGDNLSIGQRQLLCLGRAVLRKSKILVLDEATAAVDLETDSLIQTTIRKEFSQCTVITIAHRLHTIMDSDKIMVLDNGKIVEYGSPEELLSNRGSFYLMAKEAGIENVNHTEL
# Text: (§1) The four intestinal segments including duodenum, jejunum, ileum, and colon from anesthetized rats were immediately removed by surgery and washed with KRB solution. Each section of the intestinal segments was then placed in cold (on ice), bubbled (O2:CO2 95:5) KRB buffer. The four intestinal segments were then cut into 2 cm pieces, respectively, and serosas were removed by blunt dissection. Peyer’s patches were excluded from the experiment by visually identified. The stripped tissues were mounted in chambers with exposed surface area of 0.49 cm^2. Temperature of the chambers was maintained at 37 ± 0.5°C. Each of the half-cells in the chambers was filled with 5 mL fresh KRB buffer (pH 6.5). Tissue viability was continuously controlled by potential difference (PD). Tissue with electrical values less than 2 mV was refused ([Moazed and Hiebert, 2007]; [Heinen et al., 2013]).
# In this study, the effects of the three efflux transporters on emodin intestinal absorption were investigated. Meanwhile, the influence of emodin on intestinal P-gp, MRP2, and MRP3 functions were also discussed. Solutions with three concentrations (low, middle, and high) of emodin were filled in the mucosal or serosal compartment to measure the bidirectional transport characteristic. […] In the emodin impact experiments, digoxin, pravastatin, and teniposide were employed as P-gp, MRP2, and MRP3 substrates. Changes of the bidirectional transport characteristic were measured before and after adding emodin to the mucosal side.
# (§2) Frozen samples were adequately vortexed after thawing at the room temperature; 10 μL suitable IS solution was added to 200 μL samples; 200 μL methanol was added after a thorough vortex mixing for 30 s. The mixtures were then vortexed for 30 s and centrifuged at 15,000 rpm for 30 min. Finally, 5 μL of supernatant was injected into the LC-MS/MS system.
# (§3) The quantifications of the compounds were performed by the TSQ Quantum Ultra Triple Quadrupole LC-MS/MS system from Thermo Fisher Scientific. Chromatography was carried out using an Agilent Poroshell 120 SB-C18 (2.7 μm, 2.1 mm × 100 mm) column with a Phenomenex AFO-8497 C18 pre-column, operating at 30°C. Adaptive gradient elution methods were applied for the analytes. The flow rate of the mobile phase was kept at 0.2 mL min^-1. Flow was directed to the ion spray interface. All measurements were carried out in negative ESI mode. Ion spray voltage was -2500 V. Vaporizer and capillary temperatures were set at 250 and 350°C, respectively. Auto sampler temperature was set at 10°C. Sheath gas and aux gas were set at 30 and 15 Arb, respectively. […] Peak integrations and calibrations were carried out using LC Quan 2.5.2 software from Thermo Fisher Scientific.
# The Q (accumulative quantity), Papp (apparent permeability), Er (efflux ratio), Pr (Papp ratio), and Err (Er ratio) across the excited rat intestinal segments in the Ussing chamber were calculated using the following equations ([Li et al., 2012]; [Huang et al., 2016]): […]
# (§4) where Cn (nM) is the concentration of the drug at the time point (n), Q (nM) is the accumulated absorption amount, A is the exposed surface area of the intestine (0.49 cm^2), dQ/dt (nM⋅s^-1) is the amount of the drug transported, and C0 (nM) is the initial concentration of the test drug. Experiments were performed in batches, so control groups were set as one for each batch.
# MRP2 [2] = biological target: T1, MRP2; test: Ussing chamber bidirectional transport, model validation for MRP2 (pravastatin substrate, MK571 inhibitor); type: in vitro ADME; set-up: intestinal segments including duodenum, jejunum, ileum, and colon from anesthetized rats were immediately removed by surgery; from tissue; host or cells: stripped rat intestine (jejunum and ileum in validation; jejunum for the emodin studies); settings: rat
# Text: as §1, with “(PD).” for “(PD). Tissue with electrical values less than 2 mV was refused ([Moazed and Hiebert, 2007]; [Heinen et al., 2013]).”
# Digoxin, pravastatin, and teniposide were employed as the test substrates of P-gp, MRP2, and MRP3. […] The experiments were started after 30 min equilibration time, by changing the KRB buffer on both sides; 5 mL KRB solution with different test compounds was filled in the mucosal or serosal compartment; meanwhile, equal volume fresh buffer was added to the other compartment. […] The bidirectional transport studies with specific inhibitors were assessed to validate this model whether or not suitable for P-gp, MRP2, and MRP3 studies.
# as §2
# as §3, with “Chromatography was carried out using an Agilent Poroshell 120 SB-C18 (2.7 μm, 2.1 mm × 100 mm) column with a Phenomenex AFO-8497 C18 pre-column, operating at 30°C.” left out
# as §4
compound,measurement,setting,value
CC[C@H](C)C(=O)O[C@H]1C[C@H](O)C=C2C=C[C@H](C)[C@H](CC[C@@H](O)C[C@@H](O)CC(=O)O)[C@H]21 [Pravastatin],Change of Papp and Er values of pravastatin after emodin added,"MRP2 [1]; pravastatin 47 μM, emodin 185, 370, 740 μM",No significant differences
same,Papp at 47 μM,"MRP2 [1]; pH 6.5, pravastatin 47 μM, without emodin, read-out: Papp M-S, control",64.5 ± 27.9 ×10⁻⁶ cm/s
same,Papp at 47 μM,"MRP2 [1]; pH 6.5, pravastatin 47 μM, without emodin, read-out: Papp S-M, control",82.2 ± 40.4 ×10⁻⁶ cm/s
same,Papp at 47 μM,"MRP2 [1]; pH 6.5, with emodin 185 μM on mucosal side, pravastatin 47 μM, emodin 185 μM on mucosal side, read-out: Papp M-S in the presence of emodin",123 ± 19.9 ×10⁻⁶ cm/s
same,Papp at 47 μM,"MRP2 [1]; pH 6.5, with emodin 185 μM on mucosal side, pravastatin 47 μM, emodin 185 μM on mucosal side, read-out: Papp S-M in the presence of emodin",70.3 ± 19.8 ×10⁻⁶ cm/s
same,Papp at 47 μM,"MRP2 [1]; pH 6.5, with emodin 370 μM on mucosal side, pravastatin 47 μM, emodin 370 μM on mucosal side, read-out: Papp M-S in the presence of emodin",106 ± 40.3 ×10⁻⁶ cm/s
same,Papp at 47 μM,"MRP2 [1]; pH 6.5, with emodin 370 μM on mucosal side, pravastatin 47 μM, emodin 370 μM on mucosal side, read-out: Papp S-M in the presence of emodin",90.8 ± 12.7 ×10⁻⁶ cm/s
same,Papp at 47 μM,"MRP2 [1]; pH 6.5, with emodin 740 μM on mucosal side, pravastatin 47 μM, emodin 740 μM on mucosal side, read-out: Papp M-S in the presence of emodin",93.8 ± 28.7 ×10⁻⁶ cm/s
same,Papp at 47 μM,"MRP2 [1]; pH 6.5, with emodin 740 μM on mucosal side, pravastatin 47 μM, emodin 740 μM on mucosal side, read-out: Papp S-M in the presence of emodin",105 ± 27.3 ×10⁻⁶ cm/s
same,Papp,"MRP2 [2]; pH 6.5, rat duodenum, without inhibitor, read-out: Papp M-S, control",124 ± 67.3 ×10⁻⁶ cm/s
same,Papp,"MRP2 [2]; pH 6.5, rat duodenum, without inhibitor, read-out: Papp S-M, control",287 ± 165 ×10⁻⁶ cm/s
same,Papp,"MRP2 [2]; pH 6.5, rat ileum, without inhibitor, read-out: Papp M-S, control",122 ± 52.5 ×10⁻⁶ cm/s
same,Papp,"MRP2 [2]; pH 6.5, rat ileum, without inhibitor, read-out: Papp S-M, control",678 ± 325 ×10⁻⁶ cm/s
same,Papp,"MRP2 [2]; pH 6.5, rat jejunum, without inhibitor, read-out: Papp M-S, control",146 ± 39.4 ×10⁻⁶ cm/s
same,Papp,"MRP2 [2]; pH 6.5, rat jejunum, without inhibitor, read-out: Papp S-M, control",496 ± 226 ×10⁻⁶ cm/s
same,Papp,"MRP2 [2]; pH 6.5, with MK571 186 μM on mucosal side, rat jejunum, with MK571 186 μM on mucosal side, read-out: Papp S-M, with inhibitor",127 ± 33.4 ×10⁻⁶ cm/s
same,Papp,"MRP2 [2]; pH 6.5, with MK571 186 μM, mucosal side, rat duodenum, with MK571 186 μM on mucosal side, read-out: Papp M-S, with inhibitor",77.9 ± 14.8 ×10⁻⁶ cm/s
same,Papp,"MRP2 [2]; pH 6.5, with MK571 186 μM, mucosal side, rat duodenum, with MK571 186 μM on mucosal side, read-out: Papp S-M, with inhibitor",112 ± 52.7 ×10⁻⁶ cm/s
same,Papp,"MRP2 [2]; pH 6.5, with MK571 186 μM, mucosal side, rat ileum, with MK571 186 μM on mucosal side, read-out: Papp M-S, with inhibitor",124 ± 67.9 ×10⁻⁶ cm/s
same,Papp,"MRP2 [2]; pH 6.5, with MK571 186 μM, mucosal side, rat ileum, with MK571 186 μM on mucosal side, read-out: Papp S-M, with inhibitor",224 ± 141 ×10⁻⁶ cm/s
same,Papp,"MRP2 [2]; pH 6.5, with MK571 186 μM, mucosal side, rat jejunum, with MK571 186 μM on mucosal side, read-out: Papp M-S, with inhibitor",107 ± 26.8 ×10⁻⁶ cm/s
